The results in this text go back to PubChem BioAssay (NCI).

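How tested: cells in 96-well plates exposed to compound for 48 hours at five concentrations. TGI marks complete inhibition of growth.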 Where only a bound is given, the exact number is not on record here.

Some test systems named below: HCT-116 colon; MOLT-4 leukemia; SF-295 CNS; NCI-H23 lung; OVCAR-3 ovarian; HL-60(TB) leukemia; SNB-75 CNS; EKVX NSCLC; MALME-3M melanoma.
Common to all, as to assay: NCI-60 cell line screen, 48 h

On to `CCC1CN2CCc3c([nH]c4ccccc34)C2C[C@@H]1CC(=O)N(C)C` (stereo partly drawn), for which the TGI in the test with HCT-116 colon, in the test on MOLT-4 leukemia, with SF-295 CNS, with NCI-H23 lung, with OVCAR-3 ovarian and in the test with HL-60(TB) leukemia was above 100 µM in each case. Moreover, the TGI is 92.6 µM in the test with SNB-75 CNS, above 100 µM in the test on EKVX NSCLC and above 100 µM in the test with MALME-3M melanoma.

Regarding `Cc1ccc(S(=O)(=O)OCC23CCC(CC2)C2CC23)cc1` (stereo not drawn), the TGI in the test with HCT-116 colon was above 100 µM; with MOLT-4 leukemia it was above 100 µM; with SF-295 CNS it was above 100 µM; with NCI-H23 lung it was above 100 µM; with OVCAR-3 ovarian, above 100 µM; with HL-60(TB) leukemia, 39.1 µM. Also, the TGI is 40.6 µM in the test on SNB-75 CNS and above 100 µM with MALME-3M melanoma.

Regarding `CCCCCCCCCCCCCP(=O)(O)OCC`, the TGI with HCT-116 colon, in the test with SF-295 CNS, in the test with NCI-H23 lung, in the test on OVCAR-3 ovarian, in the test on HL-60(TB) leukemia and in the test with SNB-75 CNS was above 100 µM in each case. Moreover, the TGI with EKVX NSCLC and in the test with MALME-3M melanoma was above 100 µM throughout.

In the case of `COC(=O)CCC(=O)CC(=O)C(=O)Nc1c(Cl)cc([N+](=O)[O-])cc1Cl`, the TGI in the test on HCT-116 colon, with MOLT-4 leukemia, in the test on SF-295 CNS, in the test with NCI-H23 lung, in the test on OVCAR-3 ovarian and in the test on HL-60(TB) leukemia was above 100 µM in each case. Besides, the TGI in the test on SNB-75 CNS, with EKVX NSCLC and in the test on MALME-3M melanoma was above 100 µM each time.

On to `CC(=O)c1ccc(NC(=O)C(=O)Nn2c(=S)[nH]c3ccccc3c2=O)cc1`, for which the TGI in the test on HCT-116 colon, in the test on MOLT-4 leukemia, with SF-295 CNS, with NCI-H23 lung, in the test on OVCAR-3 ovarian and in the test with HL-60(TB) leukemia was above 100 µM in each case. Moreover, the TGI in the test on SNB-75 CNS, in the test with EKVX NSCLC and in the test on MALME-3M melanoma was above 100 µM each time.

On to `O=C1C2C3C=CC(C2C(=O)N1COP(=O)(O)O)C1C2C(=O)N(COP(=O)(O)O)C(=O)C2C31` (stereo not drawn), for which the TGI in the test on HCT-116 colon was above 57.6 µM; in the test on MOLT-4 leukemia, above 100 µM; in the test with SF-295 CNS, above 100 µM; with NCI-H23 lung, above 100 µM; with OVCAR-3 ovarian, above 100 µM; with HL-60(TB) leukemia, 29.9 µM. Further, the TGI in the test with SNB-75 CNS, in the test on EKVX NSCLC and in the test on MALME-3M melanoma was above 100 µM in each case.

With `CCOC(=O)C1=C(C)N(c2ccc(C)cc2)C2=C(C(=O)N(c3ccccc3)C2c2ccccc2)C1c1ccccc1` (stereo not drawn), the TGI in the test on HCT-116 colon, with MOLT-4 leukemia, in the test on SF-295 CNS, in the test with NCI-H23 lung, with OVCAR-3 ovarian and with HL-60(TB) leukemia was above 25 µM throughout. Also, the TGI with SNB-75 CNS, in the test on EKVX NSCLC and in the test on MALME-3M melanoma was above 25 µM throughout.

On to `COCCCNC(=O)CC(=O)NCCCOC`, for which the TGI in the test with HCT-116 colon, in the test on MOLT-4 leukemia, in the test on SF-295 CNS, with NCI-H23 lung, with OVCAR-3 ovarian and in the test with HL-60(TB) leukemia was above 100 µM each time. Besides, the TGI in the test on EKVX NSCLC and in the test on MALME-3M melanoma was above 100 µM in each case.

As for `O=[N+]([O-])c1cccc(C2ON2C2CCCCC2)c1` (stereo not drawn), the TGI with HCT-116 colon is 26.3 µM; in the test with MOLT-4 leukemia, 64.7 µM; in the test with SF-295 CNS, above 100 µM; in the test with NCI-H23 lung it was 45.1 µM; in the test on OVCAR-3 ovarian, 34.6 µM; in the test on HL-60(TB) leukemia, 47.9 µM. Also, the TGI in the test with SNB-75 CNS is above 100 µM; in the test on EKVX NSCLC, above 100 µM; with MALME-3M melanoma it was 54.6 µM.

With `O=C(CCC(=O)C(C(=O)c1ccccc1)c1ccccc1)Nc1cccc(C(F)(F)F)c1` (stereo not drawn), the TGI in the test with HCT-116 colon, in the test on MOLT-4 leukemia, in the test on SF-295 CNS, in the test with NCI-H23 lung, in the test on OVCAR-3 ovarian and in the test on HL-60(TB) leukemia was above 100 µM throughout. For the same molecule, the TGI with EKVX NSCLC and with MALME-3M melanoma was above 100 µM throughout.

As to `COc1cc2c3c(c1OC)-c1c(ccc4c1OCO4)CC3(C#N)N(C(=O)c1ccccc1)CC2` (stereo not drawn), the TGI in the test on HCT-116 colon, with MOLT-4 leukemia, in the test with SF-295 CNS, with NCI-H23 lung, with OVCAR-3 ovarian and in the test with HL-60(TB) leukemia was above 100 µM in each case. Besides, the figures for the TGI with SNB-75 CNS, in the test on EKVX NSCLC and in the test with MALME-3M melanoma were 49.4 µM, above 100 µM and above 100 µM, respectively.

As for `O=C(CC1(O)C(=O)Nc2c(Cl)cc(Cl)cc21)c1cccc2ccccc12` (stereo not drawn), the TGI came out at 28.5 µM in the test with HCT-116 colon; 66.9 µM in the test with MOLT-4 leukemia; 29.2 µM in the test on SF-295 CNS; 32.8 µM with NCI-H23 lung; 30 µM with OVCAR-3 ovarian; 26.5 µM in the test with HL-60(TB) leukemia. The figures for the TGI in the test with SNB-75 CNS, in the test with EKVX NSCLC and in the test with MALME-3M melanoma were 33.1 µM, 29.7 µM and 35.2 µM, respectively.

Turning to `C[C@]1(CO)CCC[C@@]2(C)C1CC[C@H]1CC3C[C@]12CC[C@]3(C)O` (stereo partly drawn), the TGI in the test on HCT-116 colon is above 100 µM; with MOLT-4 leukemia, above 100 µM; in the test with SF-295 CNS, above 100 µM; with NCI-H23 lung, above 100 µM; with OVCAR-3 ovarian, above 100 µM; in the test on HL-60(TB) leukemia, 41.1 µM. For the same molecule, the TGI in the test with SNB-75 CNS and in the test on MALME-3M melanoma was above 100 µM throughout.

For the molecule `O=C(Cc1nc2ccccc2s1)Nc1cccc(C(F)(F)F)c1`, the TGI in the test on MOLT-4 leukemia turned out to be 25.8 µM; with SF-295 CNS it was 30.7 µM; in the test on NCI-H23 lung it was 30.2 µM; in the test with OVCAR-3 ovarian, 31.8 µM; in the test with HL-60(TB) leukemia, 17.8 µM; in the test on SNB-75 CNS, 26.8 µM. Further, the TGI in the test on EKVX NSCLC amounted to 38.9 µM; in the test on MALME-3M melanoma, 30.8 µM.

In the case of `Fc1ccccc1C1CC(c2ccc3ccccc3c2)=Nc2ccccc2S1` (stereo not drawn), the TGI with HCT-116 colon, in the test with MOLT-4 leukemia, in the test on SF-295 CNS, with NCI-H23 lung, with OVCAR-3 ovarian and with HL-60(TB) leukemia was above 100 µM throughout. The TGI with EKVX NSCLC and in the test with MALME-3M melanoma was above 100 µM each time.
